What was measured:
Experiment in all cases: preservation efficacy test (PET), European Pharmacopoeia 5.1.3
Type in all cases: cell-based
[1] = system: Pseudomonas aeruginosa
[2] = system: Staphylococcus aureus; conditions: for number of microorganisms, 2 days / number of microorganisms, 7 days / number of microorganisms, 14 days / number of microorganisms, 28 days: PET, Staphylococcus aureus (SA)
[3] = system: Escherichia coli; conditions: for number of microorganisms, 2 days / number of microorganisms, 7 days / number of microorganisms, 14 days / number of microorganisms, 28 days: PET, Escherichia coli (EC)
[4] = system: Candida albicans; conditions: for number of microorganisms, 2 days / number of microorganisms, 7 days / number of microorganisms, 14 days / number of microorganisms, 28 days: PET, Candida albicans (CA)
[5] = system: Aspergillus brasiliensis; conditions: for number of microorganisms, 2 days / number of microorganisms, 7 days / number of microorganisms, 14 days / number of microorganisms, 28 days: PET, Aspergillus brasiliensis (AB)
[6] = 2 days after inoculation, substance at given % in test formulation
[7] = 7 days after inoculation, substance at given % in test formulation
[8] = 14 days after inoculation, substance at given % in test formulation
[9] = 28 days after inoculation, substance at given % in test formulation

## COC(=O)c1ccc(O)cc1 [0.1% Methylparaben]
[1]; [6]
  PA germ count, 2 days: 1
[1]; [7]
  PA germ count, 7 days: 1
[1]; [8]
  PA germ count, 14 days: 1
[1]; [9]
  PA germ count, 28 days: 1
[2]; [7]
  SA germ count, 7 days: 6.100
[2]; [8]
  SA germ count, 14 days: 140
[2]; [9]
  SA germ count, 28 days: 1
[3]; [6]
  EC germ count, 2 days: 680.000
[3]; [7]
  EC germ count, 7 days: 18.000
[3]; [8]
  EC germ count, 14 days: 45
[3]; [9]
  EC germ count, 28 days: 1
[4]; [6]
  CA germ count, 2 days: 100.000
[4]; [7]
  CA germ count, 7 days: 210.000
[4]; [8]
  CA germ count, 14 days: 85.000
[4]; [9]
  CA germ count, 28 days: 11.000
[5]; [6]
  AB germ count, 2 days: 300.000
[5]; [7]
  AB germ count, 7 days: 690.000
[5]; [8]
  AB germ count, 14 days: 300.000
[5]; [9]
  AB germ count, 28 days: 240.000

## O=C([O-])CN(CCN(CC(=O)O)CC(=O)O)CC(=O)[O-].[Na+].[Na+] [0.2 % Disodium EDTA]
[1]; PA, 2 days after inoculation, use concentration in label
  count at 2 days: 1
[1]; PA, 7 days after inoculation, use concentration in label
  count at 7 days: 1
[1]; PA, 14 days after inoculation, use concentration in label
  count at 14 days: 1
[1]; PA, 28 days after inoculation, use concentration in label
  count at 28 days: 1
[2]; SA, 2 days after inoculation, use concentration in label
  count at 2 days: 530.000
[2]; SA, 7 days after inoculation, use concentration in label
  count at 7 days: 49.000
[2]; SA, 14 days after inoculation, use concentration in label
  count at 14 days: 49.000
[2]; SA, 28 days after inoculation, use concentration in label
  count at 28 days: 2.500
[3]; EC, 2 days after inoculation, use concentration in label
  count at 2 days: 330.000
[3]; EC, 7 days after inoculation, use concentration in label
  count at 7 days: 85.000
[3]; EC, 14 days after inoculation, use concentration in label
  count at 14 days: 85.000
[3]; EC, 28 days after inoculation, use concentration in label
  count at 28 days: 1.800
[4]; CA, 28 days after inoculation, use concentration in label
  count at 28 days: 810.000
[5]; AB, 2 days after inoculation, use concentration in label
  count at 2 days: 990.000
[5]; AB, 7 days after inoculation, use concentration in label
  count at 7 days: 590.000
[5]; AB, 14 days after inoculation, use concentration in label
  count at 14 days: 590.000
[5]; AB, 28 days after inoculation, use concentration in label
  count at 28 days: 330.000

## O=c1cccccc1O [Tropolone, reference compound]
[2]; 2 days after inoculation
  number of microorganisms, 2 days: 110.000
[2]; 7 days after inoculation
  number of microorganisms, 7 days: 3.100
[2]; 14 days after inoculation
  number of microorganisms, 14 days: 3.100
[2]; 28 days after inoculation
  number of microorganisms, 28 days: 1
[3]; 2 days after inoculation
  number of microorganisms, 2 days: 190.000
[3]; 7 days after inoculation
  number of microorganisms, 7 days: 1.100
[3]; 14 days after inoculation
  number of microorganisms, 14 days: 1.100
[3]; 28 days after inoculation
  number of microorganisms, 28 days: 1
[4]; 2 days after inoculation
  number of microorganisms, 2 days: 1
[4]; 7 days after inoculation
  number of microorganisms, 7 days: 1
[4]; 14 days after inoculation
  number of microorganisms, 14 days: 1
[4]; 28 days after inoculation
  number of microorganisms, 28 days: 1
[5]; 2 days after inoculation
  number of microorganisms, 2 days: 690.000
[5]; 7 days after inoculation
  number of microorganisms, 7 days: 26.000
[5]; 14 days after inoculation
  number of microorganisms, 14 days: 1.400
[5]; 28 days after inoculation
  number of microorganisms, 28 days: 1

## CCCCCCCC(=O)NO [caprylhydroxamic acid, reference compound]
[2]; 2 days after inoculation
  number of microorganisms, 2 days: 1
[2]; 7 days after inoculation
  number of microorganisms, 7 days: 1
[2]; 14 days after inoculation
  number of microorganisms, 14 days: 1
[2]; 28 days after inoculation
  number of microorganisms, 28 days: 1
[3]; 2 days after inoculation
  number of microorganisms, 2 days: 6.900
[3]; 7 days after inoculation
  number of microorganisms, 7 days: 1
[3]; 14 days after inoculation
  number of microorganisms, 14 days: 1
[3]; 28 days after inoculation
  number of microorganisms, 28 days: 1
[4]; 2 days after inoculation
  number of microorganisms, 2 days: 210.000
[4]; 7 days after inoculation
  number of microorganisms, 7 days: 1
[4]; 14 days after inoculation
  number of microorganisms, 14 days: 1
[4]; 28 days after inoculation
  number of microorganisms, 28 days: 1
[5]; 2 days after inoculation
  number of microorganisms, 2 days: 810.000
[5]; 7 days after inoculation
  number of microorganisms, 7 days: 68.000
[5]; 14 days after inoculation
  number of microorganisms, 14 days: 180
[5]; 28 days after inoculation
  number of microorganisms, 28 days: 1

## CCCCCCC(O)CO (stereo not shown) [1,2-octanediol]
[2]; 2 days after inoculation
  number of microorganisms, 2 days: 1
[2]; 7 days after inoculation
  number of microorganisms, 7 days: 1
[2]; 14 days after inoculation
  number of microorganisms, 14 days: 1
[2]; 28 days after inoculation
  number of microorganisms, 28 days: 1
[3]; 2 days after inoculation
  number of microorganisms, 2 days: 1
[3]; 7 days after inoculation
  number of microorganisms, 7 days: 1
[3]; 14 days after inoculation
  number of microorganisms, 14 days: 1
[3]; 28 days after inoculation
  number of microorganisms, 28 days: 1
[4]; 2 days after inoculation
  number of microorganisms, 2 days: 70.000
[4]; 7 days after inoculation
  number of microorganisms, 7 days: 9.000
[4]; 14 days after inoculation
  number of microorganisms, 14 days: 1
[4]; 28 days after inoculation
  number of microorganisms, 28 days: 1
[5]; 2 days after inoculation
  number of microorganisms, 2 days: 650.000
[5]; 7 days after inoculation
  number of microorganisms, 7 days: 360.000
[5]; 14 days after inoculation
  number of microorganisms, 14 days: 250.000
[5]; 28 days after inoculation
  number of microorganisms, 28 days: 67.000

## CCCCCCCCC(O)CO (stereo not shown) [1,2-decylene glycol, reference compound]
[2]; 2 days after inoculation
  number of microorganisms, 2 days: 1
[2]; 7 days after inoculation
  number of microorganisms, 7 days: 1
[2]; 14 days after inoculation
  number of microorganisms, 14 days: 1
[2]; 28 days after inoculation
  number of microorganisms, 28 days: 1
[3]; 2 days after inoculation
  number of microorganisms, 2 days: 1
[3]; 7 days after inoculation
  number of microorganisms, 7 days: 1
[3]; 14 days after inoculation
  number of microorganisms, 14 days: 1
[3]; 28 days after inoculation
  number of microorganisms, 28 days: 1
[4]; 2 days after inoculation
  number of microorganisms, 2 days: 50.000
[4]; 7 days after inoculation
  number of microorganisms, 7 days: 12.000
[4]; 14 days after inoculation
  number of microorganisms, 14 days: 4.100
[4]; 28 days after inoculation
  number of microorganisms, 28 days: 1
[5]; 2 days after inoculation
  number of microorganisms, 2 days: 600.000
[5]; 7 days after inoculation
  number of microorganisms, 7 days: 520.000
[5]; 14 days after inoculation
  number of microorganisms, 14 days: 240.000
[5]; 28 days after inoculation
  number of microorganisms, 28 days: 190.000

From patent US20230293407A1, “Compositions Comprising (Bio)-Alkanediols with Antimicrobials for Product Protection” (Symrise AG, priority 2020, published 2023)
